Experimental data published in publication PMC9785542, “Discovery of 1-Benzhydryl-Piperazine-Based HDAC Inhibitors with Anti-Breast Cancer Activity: Synthesis, Molecular Modeling, In Vitro and In Vivo Biological Evaluation” (Pharmaceutics, 2022).
Like-named read-outs stand apart in the source and are kept apart here.

Assays:
HDAC6 = details: Figure 2; cited from earlier work
[1] = biological target: T1, Human recombinant N-ter-GST-HDAC-6 (Homo sapiens, UniProt Q9UBN7); assay: HDAC-Glo I/II bioluminogenic enzyme assay, HDAC6; assay type: biochemical; parameters: GST (N); purchased BPS Bioscience 50006
T1 sequence (Q9UBN7 1-1215): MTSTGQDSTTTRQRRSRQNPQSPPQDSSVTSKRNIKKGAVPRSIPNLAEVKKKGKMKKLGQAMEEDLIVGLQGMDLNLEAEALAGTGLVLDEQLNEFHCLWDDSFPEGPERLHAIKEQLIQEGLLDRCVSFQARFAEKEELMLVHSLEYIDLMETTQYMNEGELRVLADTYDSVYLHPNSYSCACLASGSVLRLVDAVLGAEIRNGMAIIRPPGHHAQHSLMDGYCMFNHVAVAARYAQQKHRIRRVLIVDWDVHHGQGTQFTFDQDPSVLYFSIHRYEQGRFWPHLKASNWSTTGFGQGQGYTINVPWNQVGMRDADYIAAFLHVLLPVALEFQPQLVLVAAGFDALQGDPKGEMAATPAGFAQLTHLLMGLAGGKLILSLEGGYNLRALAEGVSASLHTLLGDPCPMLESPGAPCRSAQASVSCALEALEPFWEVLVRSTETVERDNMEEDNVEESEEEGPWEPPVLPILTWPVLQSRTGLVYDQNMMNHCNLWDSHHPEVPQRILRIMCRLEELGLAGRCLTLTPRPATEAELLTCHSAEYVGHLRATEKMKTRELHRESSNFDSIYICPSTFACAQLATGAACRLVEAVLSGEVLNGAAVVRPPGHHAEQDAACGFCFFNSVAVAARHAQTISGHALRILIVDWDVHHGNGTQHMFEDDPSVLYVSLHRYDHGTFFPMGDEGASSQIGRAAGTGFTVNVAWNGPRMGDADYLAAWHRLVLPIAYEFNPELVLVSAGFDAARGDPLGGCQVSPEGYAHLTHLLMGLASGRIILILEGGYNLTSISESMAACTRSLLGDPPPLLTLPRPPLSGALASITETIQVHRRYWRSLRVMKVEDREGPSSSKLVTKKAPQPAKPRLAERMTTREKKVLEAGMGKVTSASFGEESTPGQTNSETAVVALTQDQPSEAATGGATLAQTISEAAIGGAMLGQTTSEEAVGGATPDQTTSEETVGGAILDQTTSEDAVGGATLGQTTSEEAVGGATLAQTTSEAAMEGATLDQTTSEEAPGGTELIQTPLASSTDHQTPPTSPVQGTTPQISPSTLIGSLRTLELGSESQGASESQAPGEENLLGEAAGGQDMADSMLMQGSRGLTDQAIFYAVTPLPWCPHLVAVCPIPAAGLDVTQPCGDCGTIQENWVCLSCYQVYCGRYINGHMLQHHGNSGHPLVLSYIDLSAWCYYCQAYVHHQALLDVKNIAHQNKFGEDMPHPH

[2] = biological target: T2, Human recombinant HDAC-3/NcoR2 (Homo sapiens, UniProt O15379); assay: HDAC-Glo I/II bioluminogenic enzyme assay, HDAC3; assay type: biochemical; parameters: purchased BPS Bioscience 50003; details: mean ± SD of three independent experiments; read-out: HDAC Inhibition, IC50 ± SD, HDAC3
T2 sequence (O15379 whole entry): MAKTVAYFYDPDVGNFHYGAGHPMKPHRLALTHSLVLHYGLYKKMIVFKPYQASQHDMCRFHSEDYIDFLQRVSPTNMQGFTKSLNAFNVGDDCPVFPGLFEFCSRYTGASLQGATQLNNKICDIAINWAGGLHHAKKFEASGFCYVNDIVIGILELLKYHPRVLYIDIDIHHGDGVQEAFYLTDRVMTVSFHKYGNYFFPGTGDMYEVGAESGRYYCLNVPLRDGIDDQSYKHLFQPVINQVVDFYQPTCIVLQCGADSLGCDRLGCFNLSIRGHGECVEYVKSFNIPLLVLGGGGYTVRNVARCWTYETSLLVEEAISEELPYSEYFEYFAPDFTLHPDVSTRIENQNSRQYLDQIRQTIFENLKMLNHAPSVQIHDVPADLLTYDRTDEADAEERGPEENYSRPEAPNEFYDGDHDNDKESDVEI
T2 sequence (Q9Y618 395-489 partner limits assumed): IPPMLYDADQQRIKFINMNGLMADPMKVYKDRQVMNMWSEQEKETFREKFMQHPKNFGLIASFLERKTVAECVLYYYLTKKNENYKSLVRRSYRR

MCF-7 cells = assay: Cell viability (MTT) assay, MCF-7; assay type: cell-based; details: Homo sapiens, MCF7, 48 h, read-out: Cytotoxic activity IC50 ± SD, MCF-7
Description: (§1) Human breast adenocarcinoma cells (MCF-7, ATCC® HTB-22™) and triple-negative breast cancer cells (MDA-MB-231, ATCC® HTB-26™) were obtained from the American Type Culture Collection (Rockville, MD, USA). Cells were maintained as a monolayer culture in DMEM:Ham’s 12 (1:1) medium (Sigma-Aldrich, St. Louis, MO, USA) supplemented with penicillin (192 U/mL), streptomycin (200 µg/mL), and 10% of heat-inactivated fetal calf serum (FCS). Cells were grown at 37 °C in 5% CO2 and humidified air atmosphere, by twice weekly subculture.
(§2) Cytotoxic activity of synthesized 1-benzhydryl-piperazine-based HDAC inhibitors was assessed on MDA-MB-231 and MCF-7 cells using an MTT assay. MDA-MB-231 (5 × 10^3 cells/well) and MCF-7 (5 × 10^3 cells/well) were treated with synthesized compounds in six different concentrations (100, 50, 25, 12.5, 6.25, and 3.13 μM), and each concentration was added in five replicates. MTT solution (3-(4,5-dimethylthiazol-2-yl)-2,5-diphenyltetrazolium bromide) (Sigma-Aldrich, St. Louis, USA) was added to each well (20 µL) after 48 h. After 4 h of incubation, 100 μL of 10% SDS was added in each well and incubated at 37 °C. On the next day, the absorbance at 570 nm was recorded. The ratio of absorbance (570 nm) values between treated and control cells multiplied by 100 was used to calculate cell survival (%). The concentration of synthesized HDAC inhibitors that reduced cell viability by 50% was defined as the IC50 value, and was compared to the vehicle control.

MDA-MB-231 cells [3] = assay: Apoptosis assay, Annexin V-FITC/7-AAD flow cytometry; assay type: cell-based, human; details: IC50 concentration
Description: Examined breast cancer cells (MDA-MB-231) were stained with annexin V–fluorescein isothiocyanate/and 7AAD (BD Pharmingen, San Diego, CA, USA), and the samples were prepared following the specifications given by manufacturer. The population of apoptotic cells was analyzed by flow cytometry using a FACS Calibur cytometer and Cell Quest computer software (Becton Dickinson, Heidelberg, Germany).

[4] = biological target: T3, Human recombinant C-ter-His-FLAG-HDAC1 (Homo sapiens, UniProt Q13547); assay: HDAC-Glo I/II bioluminogenic enzyme assay, HDAC1; assay type: biochemical; details: mean ± SD of three independent experiments; read-out: HDAC Inhibition, IC50 ± SD, HDAC1
T3 construct: His (C); FLAG (C); purchased BPS Bioscience 50051
T3 sequence (Q13547 whole entry): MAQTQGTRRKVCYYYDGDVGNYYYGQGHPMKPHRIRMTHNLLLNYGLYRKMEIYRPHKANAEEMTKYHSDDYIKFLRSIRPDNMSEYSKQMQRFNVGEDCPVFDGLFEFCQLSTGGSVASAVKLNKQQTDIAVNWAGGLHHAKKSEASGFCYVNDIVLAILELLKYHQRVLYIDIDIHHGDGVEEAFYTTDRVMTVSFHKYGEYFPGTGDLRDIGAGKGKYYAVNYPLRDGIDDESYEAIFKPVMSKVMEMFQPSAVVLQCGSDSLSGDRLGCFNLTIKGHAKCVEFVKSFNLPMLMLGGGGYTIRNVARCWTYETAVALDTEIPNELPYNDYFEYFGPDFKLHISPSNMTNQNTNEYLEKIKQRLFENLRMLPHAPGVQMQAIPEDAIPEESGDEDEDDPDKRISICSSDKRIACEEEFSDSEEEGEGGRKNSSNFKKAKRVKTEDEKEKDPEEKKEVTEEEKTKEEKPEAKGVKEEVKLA

MDA-MB-231 tumor spheres = assay: 3D tumor sphere model, MTT and imaging; assay type: cell-based, human; details: for tumor sphere viability: 50 µM, 72 h, formed spheres, MTT
Description: MDA-MB-231 cells were seeded at a cell density of 1000 c/w in 100 μL of DMEM containing 10% FCS in a low-attachment NunclonSphera 96-well ultra-low attachment plate (Thermo Scientific Nunc™, Rochester, NY, USA), to form multicellular tumor spheres, for 4 days. The formation and growth of tumor spheres were examined and imaged with an Olympus CKX53 microscope, using a 10× objective. MDA-MB-231 tumor spheres were treated by carefully adding 50 μL of the medium with fresh nutrient medium for control spheres or with compound-supplemented medium (50 μM) for treated spheres for another 72 h. The cytotoxicity of compounds toward the MDA-MB-231 tumor spheres was investigated by MTT assay.
The formation and growth of tumor spheroids were examined and imaged with an Olympus CKX53 microscope, using 4x objective. The cytotoxicity of compounds toward the MDA-MB-231 tumor spheroids was investigated by MTT assay.

[5] = biological target: T4, Human recombinant C-terminal His-tag-HDAC8 (Homo sapiens, UniProt Q9BY41); assay: HDAC-Glo I/II bioluminogenic enzyme assay, HDAC8; assay type: biochemical; details: mean ± SD of three independent experiments; read-out: HDAC Inhibition, IC50 ± SD, HDAC8
T4 construct: His (C); purchased BPS Bioscience 50008
T4 sequence (Q9BY41 1-377): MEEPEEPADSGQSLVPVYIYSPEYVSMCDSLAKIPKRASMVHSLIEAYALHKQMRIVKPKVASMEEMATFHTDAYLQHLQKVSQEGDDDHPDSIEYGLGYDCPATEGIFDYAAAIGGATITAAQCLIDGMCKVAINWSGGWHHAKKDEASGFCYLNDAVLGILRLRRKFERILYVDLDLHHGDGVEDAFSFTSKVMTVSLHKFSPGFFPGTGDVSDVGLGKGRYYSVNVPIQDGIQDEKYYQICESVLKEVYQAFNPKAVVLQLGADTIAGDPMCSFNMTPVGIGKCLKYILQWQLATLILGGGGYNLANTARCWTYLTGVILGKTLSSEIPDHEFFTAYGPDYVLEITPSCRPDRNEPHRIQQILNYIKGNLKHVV

MDA-MB-231 cells [6] = assay: Cell viability (MTT) assay, MDA-MB-231; assay type: cell-based, human; details: Homo sapiens, MDA-MB-231, 48 h, read-out: Cytotoxic activity IC50 ± SD, MDA-MB-231
Description: as §1, §2

[7] = biological target: T4, Human recombinant C-terminal His-tag-HDAC8; parameters: method as in PMID 21832257; details: profiles of reference HDACi; read-out: HDAC Inhibition, IC50, HDAC8; cited from earlier work
[8] = biological target: T3, Human recombinant C-ter-His-FLAG-HDAC1; parameters: method as in PMID 21832257; details: profiles of reference HDACi; read-out: HDAC Inhibition, IC50, HDAC1; cited from earlier work
[9] = biological target: T2, Human recombinant HDAC-3/NcoR2; details: read-out: HDAC Inhibition, IC50, HDAC3; cited from earlier work
[10] = biological target: T1, Human recombinant N-ter-GST-HDAC-6; details: read-out: HDAC Inhibition, IC50, HDAC6; profiles of reference HDACi; cited from earlier work
[11] = system: intersegmental blood vessels (ISVs) of Tg(fli1:EGFP) zebrafish embryos; assay: Anti-angiogenic activity in Tg(fli1:EGFP) zebrafish embryos; assay type: in vivo; details: 8b 6.25-50 µM; Suten effective dose 1.56 µM
Description: The inhibitory activity of 8b on angiogenesis was examined using embryos of the transgenic zebrafish Tg(fli1:EGFP) line with GFP-labeled endothelial cells, as previously described. Briefly, embryos at the 6–8 hpf stage were exposed to three non-toxic concentrations and incubated at 28 °C by 48 hpf. At 48 hpf, the treated embryos were anesthetized with 0.02% tricaine, imaged under a fluorescence microscope (Olympus BX51, Applied Imaging Corp., San Jose, CA, USA), and analyzed for the development of intersegmental blood vessels (ISVs). The experiment was performed three times using ten embryos per concentration. ISV lengths were measured using ImageJ program, and expressed as mean value with standard deviation. Inhibitory effect of the applied treatment was determined in relation to the control (DMSO-treated) group, arbitrarily set to 100%.

MDA-MB-231 cells [12] = assay: Cell cycle analysis, propidium iodide flow cytometry; assay type: cell-based, human; details: 72 h
Description: MDA-MB-231 cells were treated with tested compounds for specified time courses. After treatment, examined cells were washed in cold PBS and incubated for 30 min in 96% ethanol on ice, centrifuged, and incubated with 80 μL RNase A ([…]) and 50 μL propidium iodide (50 μg/mL) for 30 min at 37 °C. The cell cycle was analyzed by FACS Calibur E440 (Becton Dickinson) flow cytometer and Cell Quest software. Results are presented as a percentage of cell cycle phases.

[13] = 5 μM, mean ± standard error of triplicate

O=C(NO)c1cnc(NC2(c3ccccc3)CCC(F)(F)CC2)nc1 [ACY-1083]
IC50 (HDAC6): 0.003 µM

O=C(CCN1CCN(C(c2ccccc2)c2ccccc2)CC1)NO [Compound 3b, 3-(4-(diphenylmethyl)-piperazin-1-yl)-N-hydroxypropionamide]
inhibition at 5 µM [1, 13]: < 25%

O=C(CCCCN1CCN(C(c2ccccc2)c2ccccc2)CC1)NO [Compound 5b, 5-(4-(diphenylmethyl)-piperazin-1-yl)-N-hydroxypentanamide]
inhibition at 5 µM [1, 13]: < 25%

O=C(CCCCCN1CCN(C(c2ccccc2)c2ccccc2)CC1)NO [Compound 6b, 6-(4-(diphenylmethyl)-piperazin-1-yl)-N-hydroxyhexanamide]
IC50 [2]: 1.86 ± 0.09 µM
% HDAC6 Inhibition at 5 μM [1, 13]: 95.6 ± 0.9%
inhibition at 5 µM [1, 13]: > 90%
IC50 ([1]; mean ± SD of three independent experiments, read-out: HDAC Inhibition, IC50 ± SD, HDAC6): 0.186 ± 0.005 µM
Selectivity Ratio HDAC1/6 ([1]; ratio of IC50 values): 25.4
Selectivity Ratio HDAC3/6 ([1]; ratio of IC50 values): 10
Selectivity Ratio HDAC8/6 ([1]; ratio of IC50 values): 13.1
IC50 (MCF-7 cells): 84 ± 5.2 µM
programmed cell death (MDA-MB-231 cells [3]; 24 h): slight increase
early apoptotic cells (MDA-MB-231 cells [3]; 48 h): approximately 20%
early apoptotic cells (MDA-MB-231 cells [3]; 72 h): approximately 20%
IC50 [4]: 4.73 ± 0.67 µM
tumor sphere viability (MDA-MB-231 tumor spheres): mild decrease
sphere formation (MDA-MB-231 tumor spheres; co-culture 4 d, at higher concentrations): inhibit sphere formation to some extent
IC50 [5]: 2.44 ± 0.51 µM
IC50 (MDA-MB-231 cells [6]): 33.4 ± 2.79 µM

CCCC(=O)[O-].[Na+] [Sodium butyrate]
IC50 [7]: 10.4 µM
IC50 [8]: 8.3 µM
IC50 [9]: 4.8 µM
IC50 [10]: > 1000 µM

CCCC(CCC)C(=O)O [Valproic acid]
IC50 [8]: 660 µM
IC50 [10]: > 1000 µM

CCN(CC)CCNC(=O)c1c(C)[nH]c(/C=C2\C(=O)Nc3ccc(F)cc32)c1C [sunitinib-malate, reference compound]
toxic response in embryos at anti-angiogenic effective doses [11]: life-threatening pericardial edema

CN1CCc2c(c3ccccc3n2Cc2ccc(C(=O)NO)cc2)C1 [tubastatin A, reference compound]
IC50 (MCF-7 cells): 93.3 ± 9.4 µM
tumor sphere viability (MDA-MB-231 tumor spheres): mild decrease
sphere formation and spheres viability (MDA-MB-231 tumor spheres; co-culture 50 μM, 4 d in sphere culture conditions): significantly inhibited
sub-G1 phase cells (MDA-MB-231 cells [12]): around 30%
IC50 (MDA-MB-231 cells [6]): 20.8 ± 2.84 µM
